Measured values as given in ChEMBL document CHEMBL4138289, “Structurally Diverse Cytotoxic Dimeric Chalcones from Oxytropis chiliophylla” (J Nat Prod, 2018).

How the values were obtained:
PC-3 [1] = experiment: Cytotoxicity against human PC3 cells at 25 uM after 48 hrs by MTT assay relative to control; type: functional
PC-3 [2] = experiment: Cytotoxicity against human PC3 cells at 5 uM after 48 hrs by MTT assay relative to control; type: functional
PC-3 [3] = experiment: Growth inhibition of human PC3 cells after 48 hrs by MTT assay; type: functional, cell-based; details: PC-3, 48 h

O=C(c1ccc(O)cc1O)[C@@H]1[C@H](C(=O)c2ccc(O)cc2O)[C@@H](c2ccccc2)[C@H]1c1ccccc1 was tested, and the Activity (PC-3 [1]) was 78.8% and the Activity (PC-3 [2]) was 27.1%.

O=C(c1ccc(O)cc1O)[C@@H]1[C@@H](C(=O)c2ccc(O)cc2O)[C@H](c2ccccc2)[C@H]1c1ccccc1 showed an IC50 (PC-3 [3]) of 3.8 µM, an Activity (PC-3 [1]) of 96.3% and an Activity (PC-3 [2]) of 41.2%.

O=C(c1ccc(O)cc1O)[C@@H]1Cc2ccccc2[C@H](C(=O)c2ccc(O)cc2O)[C@@H]1c1ccccc1 was tested, and the Activity (PC-3 [1]) was 73.4% and the Activity (PC-3 [2]) was 22.3%.

In the case of O=C(c1ccc(O)cc1O)[C@H]1Cc2ccccc2[C@@H](C(=O)c2ccc(O)cc2O)[C@H]1c1ccccc1, the Activity (PC-3 [1]) is reported as 86.3% and the Activity (PC-3 [2]) is reported as 46.1%.

O=C(c1ccc(O)cc1O)[C@H]1[C@H](c2ccccc2)[C@@H](C(=O)c2ccc(O)cc2O)[C@@H]1c1ccccc1 was tested, and the Activity (PC-3 [1]) was 76.7% and the Activity (PC-3 [2]) was 12.8%.

O=C(c1ccc(O)cc1O)[C@H]1[C@H](C(=O)c2ccc(O)cc2O)[C@H](c2ccccc2)[C@@H]1c1ccccc1 showed an Activity (PC-3 [1]) of 87.6% and an Activity (PC-3 [2]) of 30.7%.

Work on O=C(c1ccc(O)cc1O)[C@@H]1[C@@H](C(=O)c2ccc(O)cc2O)[C@H](c2ccccc2)[C@@H]1c1ccccc1 yielded an Activity (PC-3 [1]) of 75.5% and an Activity (PC-3 [2]) of 29%.

With O=C(c1ccc(O)cc1O)[C@H]1[C@H](C(=O)c2ccc(O)cc2O)[C@@H](c2ccccc2)[C@@H]1c1ccccc1 the IC50 (PC-3 [3]) was 3.5 µM, the Activity (PC-3 [1]) was 97.6% and the Activity (PC-3 [2]) was 49.7%.

Compound O=C(c1ccc(O)cc1O)[C@H]1[C@H](c2ccccc2)[C@H](C(=O)c2ccc(O)cc2O)[C@H]1c1ccccc1 has an Activity (PC-3 [1]) of 88% and an Activity (PC-3 [2]) of 29.6%.

O=C(c1ccc(O)cc1O)[C@H]1[C@H](c2ccccc2)[C@H](C(=O)c2ccc(O)cc2O)[C@@H]1c1ccccc1 was tested, and the Activity (PC-3 [1]) was 57.9% and the Activity (PC-3 [2]) was 12.3%.

O=C(/C=C/c1ccccc1)c1ccc(O)cc1O [2',4'-DIHYDROXYCHALCONE] was tested, and the Activity (PC-3 [1]) was 66.2% and the Activity (PC-3 [2]) was 16.6%.
